Molecular target: KDM5B/JARID1B/PLU-1 (Homo sapiens, UniProt Q9UGL1)
Assay: in vitro histone demethylase inhibition, Ki
Type: biochemical

Chain of KDM5B/JARID1B/PLU-1 (Q9UGL1 whole entry): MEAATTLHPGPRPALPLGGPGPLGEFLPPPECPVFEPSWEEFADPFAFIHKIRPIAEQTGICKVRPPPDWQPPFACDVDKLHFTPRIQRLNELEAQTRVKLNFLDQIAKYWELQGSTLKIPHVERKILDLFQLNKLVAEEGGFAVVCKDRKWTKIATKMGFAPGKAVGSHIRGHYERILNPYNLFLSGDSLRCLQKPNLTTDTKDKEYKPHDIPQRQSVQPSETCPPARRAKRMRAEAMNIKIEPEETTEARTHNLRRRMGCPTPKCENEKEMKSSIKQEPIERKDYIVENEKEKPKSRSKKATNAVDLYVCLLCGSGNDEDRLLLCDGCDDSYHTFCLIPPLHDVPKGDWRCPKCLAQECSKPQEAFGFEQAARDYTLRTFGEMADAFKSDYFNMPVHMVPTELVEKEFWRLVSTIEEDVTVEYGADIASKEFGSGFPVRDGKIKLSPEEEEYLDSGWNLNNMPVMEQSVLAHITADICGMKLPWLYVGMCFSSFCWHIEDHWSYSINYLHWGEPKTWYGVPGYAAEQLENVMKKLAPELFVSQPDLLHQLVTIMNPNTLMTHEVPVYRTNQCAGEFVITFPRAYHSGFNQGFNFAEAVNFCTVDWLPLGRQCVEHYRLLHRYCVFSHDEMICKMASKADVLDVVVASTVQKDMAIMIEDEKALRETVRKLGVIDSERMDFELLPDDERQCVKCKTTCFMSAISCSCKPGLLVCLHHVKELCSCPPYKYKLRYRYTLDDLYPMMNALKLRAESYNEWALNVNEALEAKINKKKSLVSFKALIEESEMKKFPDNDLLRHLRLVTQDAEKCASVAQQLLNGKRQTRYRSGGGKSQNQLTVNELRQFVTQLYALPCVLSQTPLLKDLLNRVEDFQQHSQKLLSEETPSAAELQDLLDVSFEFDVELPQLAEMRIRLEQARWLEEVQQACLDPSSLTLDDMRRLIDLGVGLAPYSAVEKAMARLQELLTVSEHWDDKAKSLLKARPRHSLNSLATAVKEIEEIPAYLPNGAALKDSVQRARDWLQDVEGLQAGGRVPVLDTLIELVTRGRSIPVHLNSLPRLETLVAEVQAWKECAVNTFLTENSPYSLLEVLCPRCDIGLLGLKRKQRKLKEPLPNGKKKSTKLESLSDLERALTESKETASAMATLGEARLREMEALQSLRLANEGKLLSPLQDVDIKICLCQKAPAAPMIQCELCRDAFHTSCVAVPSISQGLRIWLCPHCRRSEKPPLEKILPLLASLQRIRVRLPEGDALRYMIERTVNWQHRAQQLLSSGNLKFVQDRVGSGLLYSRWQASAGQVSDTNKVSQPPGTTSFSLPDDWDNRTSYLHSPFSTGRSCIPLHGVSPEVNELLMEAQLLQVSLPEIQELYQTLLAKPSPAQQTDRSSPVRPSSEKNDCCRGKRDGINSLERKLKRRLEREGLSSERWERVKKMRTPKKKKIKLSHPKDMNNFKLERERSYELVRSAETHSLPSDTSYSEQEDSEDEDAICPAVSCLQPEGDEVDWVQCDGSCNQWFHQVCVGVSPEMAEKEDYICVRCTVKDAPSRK

O=C(O)CNC(=O)C(=O)O [N-oxalylglycine]
Ki: 653 ± 128 µM
